Reference: paper PMC11413854, “Reversible Control of Native GluN2B-Containing NMDA Receptors with Visible Light” (ACS Chemical Neuroscience, 2024)
Where “and” joins values, the source holds several entries; their conditions need not be identical. Identical values can stand only once.

Tested on: native NMDA currents of cultured cortical neurons
Assay: Whole-cell patch-clamp of NMDA currents in cultured cortical neurons (DIV 6-8), spectral dependence of bound OptoNAM-3
Type: cell-based, mouse
Conditions: for inhibition of NMDA currents in cortical neurons: 2 µM
Protocol: We then turned to native NMDA currents. We repeated these experiments on cultured cortical neurons at days in vitro [DIV] 6–8, a stage at which GluN2B-containing NMDARs form the major population of neuronal NMDARs.[48] On cortical neurons, 2 μM OptoNAM-3 induced 70% inhibition of NMDA-induced currents in the dark. The lower inhibitory effect of trans-OptoNAM-3 on neurons compared to HEK cells is most likely due to the mixture of NMDAR subtypes expressed in neurons.[48] […] This effect is furthermore partially reversible thanks to the use of 550 nm light.
Mice were housed in the IBENS rodent central facility duly accredited by the French Ministry of Agriculture. All experiments were performed in compliance with French and European regulations on care and protection of laboratory animals (EU Directive 2010/63, French Law 2013–118, February 6, 2013), and were approved by local ethics committees and by the French Ministry of Research and Innovation (authorization numbers #05137.02, APAFIS #28867-2020121814485893). Dissociated cultures of cortical neurons were prepared from mouse embryos at E18 as described previously.[84] After removing meninges, cortices were placed in ice-cold HBSS solution. Cell dissociation was performed individually for cortices of each embryo. Cortices were incubated in 2.5% trypsin at 37 °C for 7 min, rinsed three times with 37 °C phosphate buffer saline, and finally suspended in plating medium (Neurobasal Medium, supplemented with 0.5 mM L-glutamine, 1% B27 supplement, and penicillin/streptomycin). The neurons were further dissociated by trituration, and cells were plated on poly-D-lysine coated coverslips in 24-well culture dishes at a density of 3 × 10^5 cells per well for the excitotoxicity test and that of 1 × 10^5 cells per well for patch clamp experiments. Cultures were incubated at 37 °C in a humidified atmosphere of 5% CO2. Cells were fed by changing 1/2 medium to fresh Neurobasal medium every 4 days. For the excitotoxicity experiments, after 5 days in vitro, growth of non-neuronal cells was halted by a 24 h exposure to FDX ([…] 5-fluoro-2′-deoxyuridine). The cultures were used for experiments after 6 to 14 days in vitro (DIV6–8 for patch clamp experiments and DIV14 for excitotoxicity tests).
Whole-cell patch-clamp recordings on neurons were performed 6 to 8 days after the culturing step (DIV 6–8) using the same recording conditions as for HEK cells. Recordings were performed at a holding potential of −60 mV and at room temperature. Currents were elicited by NMDA (300 μM) and D-serine (50 μM) to specifically activate NMDARs.
OptoNAM-3 was perfused in the dark onto the patched neuron (Figure 5A–C). […] Stopping perfusion ensures that trans-OptoNAM coming from the perfusion tube […] with the wavelength PSS during the illumination procedure.
OptoNAM-3 was perfused in the dark onto the patched neuron (Figures 4G,H and 5F,H). […] Then, wavelengths from 435 to 580 nm were applied and the inhibition recovery was monitored.
For the trans to cis and cis to trans isomerization study in the binding site (Figure 5C,H respectively), we decided to normalize (scale) the inhibition values of OptoNAM-3 at different wavelengths by the inhibition induced by OptoNAM-3 at 365 nm and in the dark since these two conditions represent respectively the minimum and maximum of the inhibition. We followed this equation: [drawing 2] where m ∈ [r365,rdark] is the measurement (inhibition) to be scaled, r365 and rdark correspond to the minimum (365 nm state inhibition) and maximum (dark state inhibition) of the measurement, respectively, and t365 and tdark represent the minimum and maximum of the range (OptoNAM-3 365 nm PSS and dark PSS mean inhibition). To reduce the decreasing effect of normalization onto SEM, the SEMs represented in the figures were calculated with the data injected in the first part of the equation ( [drawing 3] ). […]

## c1ccc(/N=N/c2ccc(CCNc3ccncc3)cc2)cc1 [OptoNAM-3, (E)-N-(4-(Phenyldiazenyl)phenethyl)pyridin-4-amine]
365 nm irradiation on the cell (Fig 5C)
  inhibition of NMDA currents in cortical neurons: 27% ± 2%
550 nm illumination from UV state (Fig 4H)
  inhibition of NMDA currents in cortical neurons: 52% ± 3% and 52.150%
550 nm post 365 nm illumination (Fig 5H)
  inhibition of NMDA currents in cortical neurons: 55% ± 4%
dark, NMDA 300 µM + D-serine 50 µM
  inhibition of NMDA currents in cortical neurons: 70% ± 3% and 70.580%
Under 365 nm illumination (Fig 4H)
  inhibition of NMDA currents in cortical neurons: 25% ± 4% and 25.090%
365 nm on the cell, calculated from inhibition
  proportion of cis isomer, bound OptoNAM-3 365 nm PSS: ~90%
460 nm light from dark state, calculated from inhibition
  proportion of cis isomer, bound OptoNAM-3: ~68%
550 and 580 nm applied from the dark state
  trans-to-cis isomerization in the binding site: did not induce visible trans-to-cis isomerization
Figure 5C series (from dark PSS), 365 nm
  % Inhibition (normalized), mean: 27.607%
Figure 5C series (from dark PSS), 435 nm
  % Inhibition (normalized), mean: 44.741%
Figure 5C series (from dark PSS), 460 nm
  % Inhibition (normalized), mean: 50.648%
Figure 5C series (from dark PSS), 490 nm
  % Inhibition (normalized), mean: 64.437%
Figure 5C series (from dark PSS), 525 nm
  % Inhibition (normalized), mean: 71.178%
Figure 5C series (from dark PSS), 550 nm
  % Inhibition (normalized), mean: 73.370%
Figure 5C series (from dark PSS), 580 nm
  % Inhibition (normalized), mean: 73.446%
Figure 5C series, dark
  % Inhibition (normalized), mean: 73.585%
Figure 5H series (from 365 nm PSS), 365 nm
  % Inhibition (normalized), mean: 27.795%
Figure 5H series (from 365 nm PSS), 435 nm
  % Inhibition (normalized), mean: 27.982%
Figure 5H series (from 365 nm PSS), 460 nm
  % Inhibition (normalized), mean: 29.032%
Figure 5H series (from 365 nm PSS), 490 nm
  % Inhibition (normalized), mean: 44.081%
Figure 5H series (from 365 nm PSS), 525 nm
  % Inhibition (normalized), mean: 43.503%
Figure 5H series (from 365 nm PSS), 550 nm
  % Inhibition (normalized), mean: 54.910%
Figure 5H series (from 365 nm PSS), 580 nm
  % Inhibition (normalized), mean: 47.001%
Figure 5H series, dark
  % Inhibition (normalized), mean: 73.111%
At 365, 435 and 460 nm post 365 nm illumination, calculated from inhibition
  proportion of trans isomer, bound OptoNAM-3: ~10%
